Assay results: the NIST ThermoML archive (doi:10.1021/je050013y)
Numbers after ± are expanded uncertainties.

Experiments:
[1] = 293.15 K; 101.33 kPa; Liquid
[2] = refractive index (Na D-line) (dimensionless); conditions: 293.15 K; 101.33 kPa; Liquid; Standard Abbe refractometry

Row | mass density [1] [kg/m3] | refractive index [2] | SMILES
1 | 786.5 ± 0.3 | 1.3289 ± 0.0007 | CO [methanol]
2 | 840.2 ± 4.5 | 1.378 ± 0.0007 | COC(C)(C)OC [3,3-dimethyl-2,4-dioxapentane]

Row | SMILES | mass density [1] [kg/m3] | refractive index [2]
3 | CC(C)=O [acetone] | 784.6 ± 3 | 1.3589 ± 0.0007
